In patent US20240425491A1, “HETEROARYL COMPOUNDS USEFUL IN THE TREATMENT OF COGNITIVE DISORDERS” (University College Cardiff Consultants Limited, priority 2021, published 2024):
Where a name gives a salt, the structure may show the parent alone.

Legend:
[1] = target: T1, human recombinant GABAAR containing α5β3γ2 subunits (benzodiazepine site) (Homo sapiens, UniProt P18507+P31644); experiment: In vitro radioligand binding assay (α5-GABAAR Ki); settings: inhibition of [3H]Ro15-1788 binding, membranes of L(tk−) cells expressing human α5β3γ2; read-out: α5-GABAAR Ki
T1 construct: expressed in transfected cells; host or cells: mouse L(tk−) cells, dexamethasone-inducible vector pMSGneo
T1 sequence (P31644 32-462): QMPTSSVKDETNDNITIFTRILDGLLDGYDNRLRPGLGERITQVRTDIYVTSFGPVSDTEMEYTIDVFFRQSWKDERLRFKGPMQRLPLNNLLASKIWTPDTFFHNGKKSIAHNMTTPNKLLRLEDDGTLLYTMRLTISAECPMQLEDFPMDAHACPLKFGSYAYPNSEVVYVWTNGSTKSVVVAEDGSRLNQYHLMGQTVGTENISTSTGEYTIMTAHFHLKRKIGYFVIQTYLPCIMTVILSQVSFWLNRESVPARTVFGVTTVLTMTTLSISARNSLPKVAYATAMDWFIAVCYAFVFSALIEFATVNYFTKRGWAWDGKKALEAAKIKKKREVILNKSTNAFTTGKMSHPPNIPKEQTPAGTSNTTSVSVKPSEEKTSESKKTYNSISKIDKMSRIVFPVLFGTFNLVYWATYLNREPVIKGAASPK
T1 sequence (P28472 26-473 partner): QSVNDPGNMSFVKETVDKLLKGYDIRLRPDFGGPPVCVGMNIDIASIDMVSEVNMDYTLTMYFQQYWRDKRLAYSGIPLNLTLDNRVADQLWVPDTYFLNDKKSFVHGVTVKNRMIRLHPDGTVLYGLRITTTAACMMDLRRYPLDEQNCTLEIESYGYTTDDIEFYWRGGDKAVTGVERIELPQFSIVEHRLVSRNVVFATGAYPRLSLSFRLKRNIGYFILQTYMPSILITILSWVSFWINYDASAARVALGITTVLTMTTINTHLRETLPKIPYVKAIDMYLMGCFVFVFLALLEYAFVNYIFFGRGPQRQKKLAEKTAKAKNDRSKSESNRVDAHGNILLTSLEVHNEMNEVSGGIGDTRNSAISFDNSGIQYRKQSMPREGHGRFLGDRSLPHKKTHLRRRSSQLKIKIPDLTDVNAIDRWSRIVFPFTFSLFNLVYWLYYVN
T1 sequence (P18507 40-475): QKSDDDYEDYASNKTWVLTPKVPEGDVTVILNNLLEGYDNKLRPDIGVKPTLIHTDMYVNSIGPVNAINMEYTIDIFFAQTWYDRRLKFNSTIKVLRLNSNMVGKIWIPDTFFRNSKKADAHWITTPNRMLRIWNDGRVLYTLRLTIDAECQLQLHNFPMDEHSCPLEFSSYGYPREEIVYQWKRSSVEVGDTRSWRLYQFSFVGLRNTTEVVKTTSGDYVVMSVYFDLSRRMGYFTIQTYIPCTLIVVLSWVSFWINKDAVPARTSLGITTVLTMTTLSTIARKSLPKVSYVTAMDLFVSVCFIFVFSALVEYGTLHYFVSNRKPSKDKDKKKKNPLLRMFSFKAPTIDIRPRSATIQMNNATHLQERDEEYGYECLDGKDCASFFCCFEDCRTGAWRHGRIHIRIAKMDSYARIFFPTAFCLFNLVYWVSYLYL
Procedure, shortened: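 Membranes from mouse L(tk^−) cells stably expressing human α5β3γ2 GABAAR incubated 1 h at 4° C with 4 nM [^3H]Ro15-1788 and test compound; nonspecific binding with 1 μM TP003. Filter-bound radioactivity counted; Ki from IC50 by Cheng-Prusoff using measured Kd.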

[2] = target: T2, human α5β3γ2 GABAARs in mouse L(tk−) cells (Homo sapiens, UniProt P18507+P31644); experiment: In vitro electrophysiological recording assay (α5-GABAAR relative efficacy), QPatch; type: cell-based; settings: GABA EC10-20
T2 construct: expressed in transfected cells; host or cells: mouse L(tk−) cells, dexamethasone-inducible vector pMSGneo
T2 sequence (P31644 32-462): as the sequence (P31644 32-462) above
T2 sequence (P28472 26-473 partner): as the sequence (P28472 26-473 partner) above
T2 sequence (P18507 40-475): as the sequence (P18507 40-475) above
Procedure, shortened: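 Whole-cell QPatch recordings at 20-22° C, −65 mV holding, in dexamethasone-induced (1 μM, 24 h) L(tk−) cells. Compound pre-applied ≥1 min, then co-applied with GABA EC10-20; percentage change in leak-corrected peak current, taken at ≥100× Ki, normalised to DMCM efficacy; 0.1% DMSO final.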

[3] = target: T3, human α5β3γ2L GABAA receptors in HEK293 cells (Homo sapiens, UniProt P18507+P31644); experiment: In vitro electrophysiological recording assay (α5-GABAAR relative efficacy), SyncroPatch; type: cell-based; settings: Conc 0.1 μM; GABA EC10-20
T3 construct: expressed in transfected cells
T3 sequence (P31644 32-462): as the sequence (P31644 32-462) above
T3 sequence (P28472 26-473 partner): as the sequence (P28472 26-473 partner) above
T3 sequence (P18507 40-475): as the sequence (P18507 40-475) above
Procedure, shortened: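 HEK293 cells stably expressing the receptor, automated whole-cell patch clamp at −80 mV, room temperature (20-22° C). Compound pre-incubated 1-2 min, then co-applied with GABA EC10-20; % change in peak current vs GABA alone (leak-subtracted). Tested generally at ≥100× Ki and normalised to DMCM efficacy as relative efficacy.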

[4] = tested on: mouse hippocampal brain slices (LTP suppressed by etomidate); experiment: Electrophysiology in hippocampal slices - long term potentiation assay

Structure (SMILES) | Ki [1] | α5-GABAAR Relative Efficacy (to DMCM), Qpatch ([2]; Conc 0.3 μM) | α5-GABAAR Relative Efficacy (to DMCM), SyncroPatch [3] | α5-GABAAR Relative Efficacy (to DMCM), Qpatch ([2]; Conc 0.1 μM) | α5-GABAAR Relative Efficacy (to DMCM), Qpatch ([2]; Conc 1 μM) | α5-GABAAR Relative Efficacy (to DMCM), Qpatch ([2]; Conc 3 μM) | magnitude of LTP (fEPSP slope as % of control fEPSPs prior to 4-TBS vs time) ([4]; etomidate 3 μM alone, n=17, FIG. 2A) | fEPSP slope at 50-60 min post-delivery of the 4-TBS ([4]; etomidate alone compared to control, FIG. 2B)
COc1nc(-c2cnc(CN(C)C)nc2)cnc1NC(=O)c1c(-c2ccccc2)noc1C [Example 144, N-[5-[2-[(Dimethylamino)methyl]pyrimidin-5-yl]-3-methoxy-pyrazin-2-yl]-5-methyl-3-phenyl-isoxazole-4-carboxamide] | 1.4 nM | −0.95 | −1.05 | – | – | – | – | –
COc1nc(-c2cnc(C(N)=O)nc2)ccc1NC(=O)c1c(-c2ccccc2)noc1C [Example 129, N-[6-(2-Carbamoylpyrimidin-5-yl)-2-methoxy-3-pyridyl]-5-methyl-3-phenyl-isoxazole-4-carboxamide] | 0.8 nM | – | −0.72 | −0.77 | – | – | – | –
COc1nc(-c2cnn(C)c2)ccc1NC(=O)c1c(-c2ccccc2)noc1C [Example 4, N-[2-Methoxy-6-(1-methylpyrazol-4-yl)-3-pyridyl]-5-methyl-3-phenyl-isoxazole-4-carboxamide] | 29.7 nM | – | −0.36 | – | −0.68 | – | – | –
CNc1ncc(-c2ccc(NC(=O)c3c(-c4ccccc4)noc3C)c(OC)n2)cn1 [Example 47, N-[2-Methoxy-6-[2-(methylamino)pyrimidin-5-yl]-3-pyridyl]-5-methyl-3-phenyl-isoxazole-4-carboxamide] | 0.8 nM | – | −1.00 | −0.81 | – | – | – | –
COc1nc(-c2nnc3n2CCNC3)ccc1NC(=O)c1c(-c2ccccc2)noc1C [Example 196, N-(2-Methoxy-6-(5,6,7,8-tetrahydro-[1,2,4]triazolo[4,3-a]pyrazin-3-yl)pyridin-3-yl)-5-methyl-3-phenylisoxazole-4-carboxamide dihydrochloride] | 23.5 nM | – | −0.68 | – | – | −0.71 | – | –
COc1nc(-c2cnc(N)nc2)cnc1NC(=O)c1c(-c2ccccc2)noc1C [Example 67, N-[5-(2-Aminopyrimidin-5-yl)-3-methoxy-pyrazin-2-yl]-5-methyl-3-phenyl-isoxazole-4-carboxamide] | 0.6 nM | – | −1.14 | −0.94 | – | – | – | –
COc1nc(-c2ccc(N)nn2)ccc1NC(=O)c1c(-c2ccccc2)noc1C [Example 127, N-[6-(6-Aminopyridazin-3-yl)-2-methoxy-3-pyridyl]-5-methyl-3-phenyl-isoxazole-4-carboxamide] | 21.8 nM | – | −0.57 | – | – | −0.72 | – | –
CCOC(=O)c1cncn1[C@H](C)c1ccccc1 [etomidate, reference compound] | – | – | – | – | – | – | reduced | significantly reduced fEPSP slope
COc1nc(-c2cnc(C(F)(F)F)nc2)ccc1NC(=O)c1c(-c2ccccc2)noc1C [Example 53, N-[2-Methoxy-6-[2-(trifluoromethyl)pyrimidin-5-yl]-3-pyridyl]-5-methyl-3-phenyl-isoxazole-4-carboxamide] | 2.4 nM | −0.92 | −0.83 | – | – | – | – | –
COc1nc(-c2cnc3n2CCN(C(C)=O)C3)ccc1NC(=O)c1c(-c2ccccc2)noc1C [Example 143, N-(6-(7-Acetyl-5,6,7,8-tetrahydroimidazo[1,2-a]pyrazin-3-yl)-2-methoxypyridin-3-yl)-5-methyl-3-phenylisoxazole-4-carboxamide] | 0.4 nM | – | −0.72 | −0.80 | – | – | – | –
COc1nc(-c2cnc(CN)nc2)ccc1NC(=O)c1c(-c2ccccc2)noc1C.Cl [Example 126, N-[6-[2-(Aminomethyl)pyrimidin-5-yl]-2-methoxy-3-pyridyl]-5-methyl-3-phenyl-isoxazole-4-carboxamide hydrochloride] | 1.1 nM | −0.68 | −0.55 | – | – | – | – | –
COc1nc(-c2cnc(CN(C)C)nc2)ccc1NC(=O)c1c(-c2ccccc2)noc1C [Example 74, N-[6-[2-[(Dimethylamino)methyl]pyrimidin-5-yl]-2-methoxy-3-pyridyl]-5-methyl-3-phenyl-isoxazole-4-carboxamide] | 2.1 nM | −1.00 | −0.62 | – | – | – | – | –
COc1nc(-c2cnc(O)c(C(F)(F)F)c2)ccc1NC(=O)c1c(-c2ccccc2)noc1C [Example 107, N-(6′-Hydroxy-6-methoxy-5′-(trifluoromethyl)-[2,3′-bipyridin]-5-yl)-5-methyl-3-phenylisoxazole-4-carboxamide] | 13.5 nM | – | −0.47 | – | – | −0.66 | – | –
COc1nc(-n2cnc3c2CNCC3)ccc1NC(=O)c1c(-c2ccccc2)noc1C.Cl.Cl [Example 179, N-[2-Methoxy-6-(4,5,6,7-tetrahydroimidazo[4,5-c]pyridin-3-yl)-3-pyridyl]-5-methyl-3-phenyl-isoxazole-4-carboxamide dihydrochloride] | 3 nM | −0.65 | −0.38 | – | – | – | – | –
COc1nc(-c2ccc(N)nc2)ccc1NC(=O)c1c(-c2ccccc2)noc1C [Example 89, N-(6′-Amino-6-methoxy-[2,3′-bipyridin]-5-yl)-5-methyl-3-phenylisoxazole-4-carboxamide] | 3.1 nM | – | −0.62 | – | −0.64 | – | – | –
COc1nc(-c2ccc(CN)nc2)ccc1NC(=O)c1c(-c2ccccc2)noc1C.Cl [Example 199, N-[6-[6-(Aminomethyl)-3-pyridyl]-2-methoxy-3-pyridyl]-5-methyl-3-phenyl-isoxazole-4-carboxamide hydrochloride] | 1.6 nM | −0.82 | −0.93 | – | – | – | – | –
COc1nc(-c2ccn3nc(N)nc3c2)ccc1NC(=O)c1c(C)nnn1-c1ccccc1 [Example 159, N-(6-(2-Amino-[1,2,4]triazolo[1,5-a]pyridin-7-yl)-2-methoxypyridin-3-yl)-4-methyl-1-phenyl-1H-1,2,3-triazole-5-carboxamide] | 9.2 nM | – | −0.81 | – | −0.82 | – | – | –
COc1nc(-c2cnoc2)ccc1NC(=O)c1c(-c2ccccc2)noc1C [Example 68, N-(6-Isoxazol-4-yl-2-methoxy-3-pyridyl)-5-methyl-3-phenyl-isoxazole-4-carboxamide] | 3.2 nM | – | −0.56 | – | −0.66 | – | – | –
